Activity calls are given as the source filed them. The rule behind the calls is not given here.
Columns and labels:
[1] = organism: Danio rerio; test: Inhibition of FGFR-mediated mkp3 mRNA expression in Zebrafish embryo mid-hind brain boundary at 40 uM by in situ hybridization analysis
[2] = organism: Danio rerio; test: Inhibition of FGFR-mediated distal pectoral fin development in Zebrafish embryo at 700 nM by in situ hybridization method at 48-60 hrs post fertilization stage
[3] = organism: Danio rerio; test: Inhibition of FGFR-mediated mkp3 mRNA expression in Zebrafish dorsal forebrain at 40 uM by in situ hybridization analysis; format: tissue-based
[4] = organism: Danio rerio; test: Inhibition of FGFR-mediated fin development in Zebrafish embryo at 40 uM by in situ hybridization method at 48-60 hrs post fertilization stage
[5] = organism: Danio rerio; test: Inhibition of FGFR-mediated mkp3 mRNA expression in Zebrafish embryo tailbud region at 40 uM by in situ hybridization analysis

Cc1c[nH]c(/C=C2\C(=O)Nc3ccccc32)c1CCC(=O)O was tested, and the inhibition [1] was “Active”, the inhibition [2] was 72% and the inhibition [3] was “Active”. The inhibition [4] was 76% and the inhibition [5] was “Active”.

Source: ChEMBL document CHEMBL1240307, “A functional genomics approach to the mode of action of apratoxin A” (Nat Chem Biol, 2006)
